Measurements as given in PMC3598705, “Evaluation of Toxicity and Biodegradability of Cholinium Amino Acids Ionic Liquids” (PLoS ONE, 2013).
≈ marks a conversion by molar mass, not a printed value.

How the values were obtained:
[1] = molecular target: T1, AChE type VI-S (from the electric eel) (Electrophorus electricus, UniProt O42275); assay: AChE inhibition assay (colorimetric, DTNB reduction); format: biochemical; conditions: DTNB 0.5 mM, AChE 0.05 U mL^−1, acetylthiocholine iodide 0.5 mM, 37 °C, phosphate buffer pH 8.0; mean ± SD; read-out: EC50±SD (toxicity toward AChE)
T1 construct: purchased Sigma–Aldrich, USA type VI-S (catalogue number not given)
Protocol: A colorimetric assay based on reduction of DTNB was used to measure AChE inhibition as described previously, [24], in the presence of a phosphate buffer system in order to eliminate the effects of pH changes on enzyme activity. Briefly, IL solutions were prepared with 0.2 M phosphate buffer (pH 8.0) in 96-well microtiter plates. The enzyme (0.2 U mL^−1, plus 0.25 mg mL^−1 bovine serum albumin in the same phosphate buffer), and DTNB (2 mM, plus 0.185 mg mL^−1 NaHCO3 in the same phosphate buffer) were added to each well and kept at 37 °C for 5 min, and then the reaction was initiated by adding acetylthiocholine iodide (2 mM in the same phosphate buffer). In the experimental reactions, the final concentrations of DTNB, acetylthiocholine iodide and AChE were 0.5 mM, 0.5 mM and 0.05 U mL^−1, respectively. Except where stated otherwise, the concentration range used to calculate EC50 of the [Ch][AA] ILs was 0–50 mM. However, for strongly alkaline [Ch][AA] ILs such as [Ch][Lys], the maximum concentration used was 20 mM in order to avoid changes in enzyme activity due to pH changes that would be caused if the IL exceeded the buffering capacity of the phosphate buffer. Acidic amino acid-derived ILs ([Ch][Asp] and [Ch][Glu]) were used up to 80 mM. The control compounds cholinium chloride ([Ch][Cl]), [Bmim][BF4] and acetone were used at concentration ranges of 0–80 mM, 0–50 mM and 10 mM–2.5 M, respectively. Control experiments without enzyme were carried out under otherwise identical conditions. Reduction of DTNB was monitored at 405 nm and at 10 second intervals in a microplate reader (Wallac 1420 VICTOR3, PerkinElmer, Singapore) over a period of 5 min. Enzyme activity was expressed as ΔOD min^−1 obtained via linear regression analysis. All assays were performed at least in triplicate.
All data were analyzed by One-Way analysis of variance using SPSS 11.5 (SPSS Inc., USA). EC50 values are presented as mean ± standard deviation (SD) from at least three repeats, and confidence intervals (α = 0.05) of EC50 are also presented. The One-Way ANOVA was used to judge if the difference between the different ILs groups was significant. When the p value was<0.05, the difference was considered to be significant.

E. coli ATCC 8739 = assay: Antimicrobial activity, tube dilution method; format: cell-based, Escherichia coli; conditions: four repeated experiments; for MIC: 24 h at 37 °C; for MBC: kills 99.9% or more
Protocol: (§1) Antimicrobial activity was measured via the tube dilution method as described previously. Briefly, E. coli, S. aureus, S. enteritidis and L. monocytogenes were cultured in Mueller-Hinton broth for 24 h at 37 °C. A microorganism suspension of 10^6 cfu mL^−1 (cfu, colony forming units) was prepared from each culture. IL solutions (31.3–1500 mM) were prepared with sterilized Mueller-Hinton broth, and then were sterilized by filtration (0.45 µm pore-diameter membrane). The various permutations of microorganism suspension (50 µL) and IL solution (50 µL) were mixed in 96-well microtiter plate. Growth of the microorganisms was determined visually after incubation for 24 h at 37 °C. Controls were conducted under the same conditions: negative controls without microorganisms and positive controls without ILs. The lowest concentration at which there was no visible growth (turbidity) was taken as the minimal inhibitory concentration (MIC). Samples of 20 µL from each well were spread onto Mueller-Hinton agar medium with inactivates (0.3% lecithin, 3% polysorbate 80 and 0.1% L-cysteine) and incubated for 48 h at 37 °C. The lowest concentration of the IL that killed 99.9% or more of the test bacterium was taken as the minimum biocidal concentration (MBC).

[2] = test system: S. enteritidis ATCC 14128; assay: Antimicrobial activity, tube dilution method; format: cell-based, Salmonella enteritidis; conditions: four repeated experiments; for MIC: 24 h at 37 °C; for MBC: kills 99.9% or more
Protocol: as §1

[3] = test system: L. monocytogenes ATCC 19115; assay: Antimicrobial activity, tube dilution method; format: cell-based, Listeria monocytogenes; conditions: four repeated experiments; for MIC: 24 h at 37 °C; for MBC: kills 99.9% or more
Protocol: as §1

S. aureus ATCC 29213 = assay: Antimicrobial activity, tube dilution method; format: cell-based, Staphylococcus aureus; conditions: four repeated experiments; for MIC: 24 h at 37 °C; for MBC: kills 99.9% or more
Protocol: as §1

T1 sequence (O42275 24-633): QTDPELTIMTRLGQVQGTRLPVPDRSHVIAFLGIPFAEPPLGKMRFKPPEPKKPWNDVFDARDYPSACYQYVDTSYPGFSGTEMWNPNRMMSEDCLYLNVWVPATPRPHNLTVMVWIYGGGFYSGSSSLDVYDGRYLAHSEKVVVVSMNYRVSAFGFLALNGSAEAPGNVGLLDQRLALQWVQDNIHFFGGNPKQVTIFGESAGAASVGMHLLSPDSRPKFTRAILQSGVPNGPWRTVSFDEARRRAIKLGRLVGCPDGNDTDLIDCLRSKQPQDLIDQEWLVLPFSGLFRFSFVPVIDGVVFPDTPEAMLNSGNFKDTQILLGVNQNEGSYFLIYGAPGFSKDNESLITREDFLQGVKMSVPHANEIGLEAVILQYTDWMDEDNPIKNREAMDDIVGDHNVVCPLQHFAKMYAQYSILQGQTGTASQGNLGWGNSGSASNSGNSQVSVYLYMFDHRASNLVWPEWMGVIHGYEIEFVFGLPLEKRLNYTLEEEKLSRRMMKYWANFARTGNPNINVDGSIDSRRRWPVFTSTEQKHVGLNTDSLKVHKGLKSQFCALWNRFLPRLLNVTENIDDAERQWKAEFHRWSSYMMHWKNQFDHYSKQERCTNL

Row | Compound | EC50 [1] | MIC (E. coli ATCC 8739) | MBC (E. coli ATCC 8739) | MIC [2] | MBC [2] | MIC [3] | MBC [3] | MIC (S. aureus ATCC 29213) | MBC (S. aureus ATCC 29213)
1 | C[N+](C)(C)CCO.C[N+](C)(C)CCO.N[C@@H](CC(=O)[O-])C(=O)[O-] [[Ch][Asp]] | 3.81 ± 0.09 mM | 500 mM | 750 mM | 125 mM | 188 mM | 500 mM | 750 mM | 750 mM | 750 mM
2 | C[N+](C)(C)CCO.N[C@@H](CCC(=O)O)C(=O)[O-] [[Ch][Glu]] | 3.72 ± 0.07 mM | 500 mM | 750 mM | 125 mM | 188 mM | 500 mM | 750 mM | 750 mM | 750 mM
3 | N[C@@H](CO)C(=O)O [[Ch][Ser]] | 3.56 ± 0.15 mM | – | – | – | – | – | – | – | –
4 | O=C(O)[C@@H]1CCCN1 [[Ch][Pro]] | 3.37 ± 0.16 mM | – | – | – | – | – | – | – | –
5 | C[C@@H](O)[C@H](N)C(=O)[O-].C[N+](C)(C)CCO [[Ch][Thr]] | – | 31.3 mM | 62.5 mM | 46.9 mM | 62.5 mM | 93.8 mM | 125 mM | 125 mM | 250 mM
6 | CC(C)[C@H](N)C(=O)O [[Ch][Val]] | 3.06 ± 0.12 mM | 46.9 mM (≈ 5490 µg/mL) | 62.5 mM (≈ 7320 µg/mL) | 46.9 mM (≈ 5490 µg/mL) | 62.5 mM (≈ 7320 µg/mL) | 93.8 mM (≈ 11000 µg/mL) | 125 mM (≈ 14600 µg/mL) | 93.8 mM (≈ 11000 µg/mL) | 125 mM (≈ 14600 µg/mL)
7 | C[C@@H](O)[C@H](N)C(=O)O [[Ch][Thr]] | 3.45 ± 0.15 mM | – | – | – | – | – | – | – | –
8 | C[N+](C)(C)CCO.NCC(=O)[O-] [[Ch][Gly]] | – | 125 mM | 250 mM | 93.8 mM | 125 mM | 250 mM | 500 mM | 250 mM | 500 mM
9 | C[C@H](N)C(=O)O [[Ch][Ala]] | 3.33 ± 0.1 mM | – | – | – | – | – | – | – | –
10 | C[N+](C)(C)CCO.[Cl-] [[Ch][Cl], cholinium chloride, reference compound] | 3.16 ± 0.09 mM | >750 mM | >750 mM | >750 mM | >750 mM | >750 mM | >750 mM | >750 mM | >750 mM
11 | C[C@H](N)C(=O)[O-].C[N+](C)(C)CCO [[Ch][Ala]] | – | 46.9 mM | 93.8 mM | 62.5 mM | 93.8 mM | 188 mM | 250 mM | 188 mM | 250 mM
12 | C[N+](C)(C)CCO.N[C@@H](Cc1c[nH]c2ccccc12)C(=O)[O-] [[Ch][Trp]] | 2.45 ± 0.02 mM | 23.4 mM | 31.3 mM | 23.4 mM | 31.3 mM | 31.3 mM | 46.9 mM | 46.9 mM | 62.5 mM
13 | N[C@@H](Cc1cnc[nH]1)C(=O)O [[Ch][His]] | 3.63 ± 0.04 mM | – | – | – | – | – | – | – | –
14 | NC(=O)CC[C@H](N)C(=O)O [[Ch][Gln]] | 3.51 ± 0.16 mM | – | – | – | – | – | – | – | –
15 | CSCC[C@H](N)C(=O)O [[Ch][Met]] | 3.13 ± 0.14 mM | – | – | – | – | – | – | – | –
16 | C[N+](C)(C)CCO.N[C@@H](CO)C(=O)[O-] [[Ch][Ser]] | – | 31.3 mM | 62.5 mM | 46.9 mM | 62.5 mM | 93.8 mM | 125 mM | 125 mM | 250 mM
17 | C[N+](C)(C)CCO.N[C@@H](Cc1cnc[nH]1)C(=O)[O-] [[Ch][His]] | – | 46.9 mM | 62.5 mM | 46.9 mM | 62.5 mM | 93.8 mM | 125 mM | 93.8 mM | 125 mM
18 | C[N+](C)(C)CCO.NC(=O)C[C@H](N)C(=O)[O-] [[Ch][Asn]] | – | 93.8 mM | 125 mM | 93.8 mM | 125 mM | 250 mM | 250 mM | 188 mM | 250 mM
19 | CC(=O)[O-].C[N+](C)(C)CCO [[Ch][AcO], Cholinium acetate, reference compound] | – | 500 mM | 750 mM | 750 mM | 750 mM | 500 mM | 750 mM | 500 mM | 750 mM
20 | C[N+](C)(C)CCO.NC(=O)CC[C@H](N)C(=O)[O-] [[Ch][Gln]] | – | 125 mM | 188 mM | 93.8 mM | 125 mM | 188 mM | 250 mM | 125 mM | 188 mM
21 | C[N+](C)(C)CCO.O=C([O-])[C@@H]1CCCN1 [[Ch][Pro]] | – | 46.9 mM | 62.5 mM | 46.9 mM | 62.5 mM | 62.5 mM | 93.8 mM | 93.8 mM | 125 mM
22 | NC(=O)C[C@H](N)C(=O)O [[Ch][Asn]] | 3.94 ± 0.05 mM | – | – | – | – | – | – | – | –
23 | NCC(=O)O [[Ch][Gly]] | 3.83 ± 0.17 mM | – | – | – | – | – | – | – | –
24 | CSCC[C@H](N)C(=O)[O-].C[N+](C)(C)CCO [[Ch][Met]] | – | 31.3 mM | 62.5 mM | 31.3 mM | 62.5 mM | 125 mM | 250 mM | 125 mM | 250 mM
